Laboratory results taken from paper PMC6018617, “Probing GABAA receptors with inhibitory neurosteroids” (Neuropharmacology, 2018).

Legend:
α1β2γ2L [1] = target: T1, α1β2γ2L (Mus musculus, UniProt P22723+P62812+P63137); experiment: whole-cell patch clamp, HEK cells; format: cell-based; details: GABA EC100 (1 mM), PTX pre-applied then co-applied; text calls it picrotoxin, reagent list picrotoxinin
T1 construct: gene Gabra1; full-length subunits in pRK5, co-expressed 1:1:1 in HEK cells; heteropentamer; with Gamma-aminobutyric acid receptor subunit gamma-2

α1β2 = target: T2, α1β2 (Mus musculus, UniProt P62812+P63137); experiment: whole-cell patch clamp, HEK cells; format: cell-based; details: read-out: PS IC50
T2 construct: gene Gabra1; full-length subunits in pRK5, co-expressed in HEK cells; heteropentamer without gamma
Text: whole-cell patch clamp, HEK cells on α1β2

α1β2γ2L [2] = target: T1, α1β2γ2L; experiment: whole-cell patch clamp, HEK cells; format: cell-based; details: read-out: PS IC50
Text: whole-cell patch clamp, HEK cells on α1β2γ2L

α4β2δ = target: T3, α4β2δ (Mus musculus, UniProt P22933+P63137+Q9D6F4); experiment: whole-cell patch clamp, HEK cells; format: cell-based; details: read-out: PS IC50
T3 construct: gene Gabra4; full-length subunits in pRK5, co-expressed in HEK cells; heteropentamer; with Gamma-aminobutyric acid receptor subunit delta
Text: whole-cell patch clamp, HEK cells on α4β2δ

α3β2γ2L [3] = target: T4, α3β2γ2L (Mus musculus, UniProt P22723+P26049+P63137); experiment: whole-cell patch clamp, HEK cells; format: cell-based; details: read-out: PS IC50
T4 construct: gene Gabra3; full-length subunits in pRK5, co-expressed in HEK cells; heteropentamer; with Gamma-aminobutyric acid receptor subunit gamma-2
Text: whole-cell patch clamp, HEK cells on α3β2γ2L

α6β2δ [4] = target: T5, α6β2δ (Mus musculus, UniProt P16305+P22933+P63137); experiment: whole-cell patch clamp, HEK cells; format: cell-based; details: read-out: PS IC50
T5 construct: gene Gabra6; full-length subunits in pRK5, co-expressed in HEK cells; heteropentamer; with Gamma-aminobutyric acid receptor subunit delta
Text: whole-cell patch clamp, HEK cells on α6β2δ

β3 homomer = target: T6, β3 homomer (Mus musculus, UniProt P63080); experiment: whole-cell patch clamp, HEK cells; format: cell-based; details: 100 μM PS co-applied with 500 μM pentobarbitone
T6 construct: gene Gabrb3; full-length subunit in pRK5, HEK cells; homopentamer

α1β2γ2L [5] = target: T7, α1β2γ2L (Mus musculus, UniProt P22723+P62812+P63137, P62812:V283S); experiment: whole-cell patch clamp, HEK cells; format: cell-based
T7 construct: gene Gabra1; full-length subunits in pRK5, co-expressed 1:1:1 in HEK cells; heteropentamer; with Gamma-aminobutyric acid receptor subunit gamma-2

ρ1 [6] = target: T8, ρ1 (Homo sapiens, UniProt P24046, P315V); experiment: whole-cell patch clamp, HEK cells; format: cell-based
T8 construct: gene GABRR1; full-length subunit in pRK5, HEK cells; homopentamer

ρ1-260-γ2S = system: T9, ρ1-260-γ2S; experiment: whole-cell patch clamp, HEK cells; format: cell-based, Homo sapiens; Mus musculus; details: co-applied with GABA EC80 (200 μM)
T9 construct: gene GABRR1; single-chain fusion: human rho1 ECD to residue 260, mouse gamma2S TMD; homopentamer in HEK cells

ρ1 [7] = target: T10, ρ1 (Homo sapiens, UniProt P24046); experiment: whole-cell patch clamp, HEK cells; format: cell-based; details: read-out: PS IC50
T10 construct: gene GABRR1; full-length subunit in pRK5, HEK cells; homopentamer
Text: whole-cell patch clamp, HEK cells on ρ1

α2β2γ2L = target: T11, α2β2γ2L (Mus musculus, UniProt P22723+P26048+P63137); experiment: whole-cell patch clamp, HEK cells; format: cell-based; details: read-out: PS IC50
T11 construct: gene Gabra2; full-length subunits in pRK5, co-expressed in HEK cells; heteropentamer; with Gamma-aminobutyric acid receptor subunit gamma-2
Text: whole-cell patch clamp, HEK cells on α2β2γ2L

α5β2γ2L = target: T12, α5β2γ2L (Mus musculus, UniProt P22723+P63137+Q8BHJ7); experiment: whole-cell patch clamp, HEK cells; format: cell-based; details: read-out: PS IC50
T12 construct: gene Gabra5; full-length subunits in pRK5, co-expressed in HEK cells; heteropentamer; with Gamma-aminobutyric acid receptor subunit gamma-2
Text: whole-cell patch clamp, HEK cells on α5β2γ2L

α1β3γ2L = target: T13, α1β3γ2L (Mus musculus, UniProt P22723+P62812+P63080); experiment: whole-cell patch clamp, HEK cells; format: cell-based; details: read-out: PS IC50
T13 construct: gene Gabra1; full-length subunits in pRK5, co-expressed in HEK cells; heteropentamer; with Gamma-aminobutyric acid receptor subunit gamma-2
Text: whole-cell patch clamp, HEK cells on α1β3γ2L

ρ1-260-α1 = system: T14, ρ1-260-α1; experiment: whole-cell patch clamp, HEK cells; format: cell-based, Homo sapiens; Mus musculus; details: steady-state current, co-applied with GABA EC80 (30 μM), pH 7.4, room temperature
T14 construct: gene GABRR1; single-chain fusion: human rho1 ECD to residue 260 (start of M1), mouse alpha1 TMD with linkers; homopentamer in HEK cells

α3β2γ2L [8] = target: T4, α3β2γ2L; experiment: whole-cell patch clamp, HEK cells, Hill fit; format: cell-based
Text: whole-cell patch clamp, HEK cells, Hill fit on α3β2γ2L

α6β2δ [9] = target: T5, α6β2δ; experiment: whole-cell patch clamp, HEK cells, Hill fit; format: cell-based
Text: whole-cell patch clamp, HEK cells, Hill fit on α6β2δ

T1 sequence (P62812 28-455): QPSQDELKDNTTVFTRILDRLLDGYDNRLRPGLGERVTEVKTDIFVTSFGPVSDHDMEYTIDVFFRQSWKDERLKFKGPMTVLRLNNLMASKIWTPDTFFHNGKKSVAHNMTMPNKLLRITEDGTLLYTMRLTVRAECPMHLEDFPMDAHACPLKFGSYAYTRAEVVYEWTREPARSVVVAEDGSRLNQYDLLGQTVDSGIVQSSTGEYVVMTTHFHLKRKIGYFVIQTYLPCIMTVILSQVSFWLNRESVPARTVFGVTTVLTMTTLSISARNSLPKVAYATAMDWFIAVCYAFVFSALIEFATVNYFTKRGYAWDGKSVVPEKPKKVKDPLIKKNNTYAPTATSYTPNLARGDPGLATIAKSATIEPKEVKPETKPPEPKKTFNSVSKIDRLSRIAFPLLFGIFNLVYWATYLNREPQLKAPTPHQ
T1 sequence (P63137 26-512): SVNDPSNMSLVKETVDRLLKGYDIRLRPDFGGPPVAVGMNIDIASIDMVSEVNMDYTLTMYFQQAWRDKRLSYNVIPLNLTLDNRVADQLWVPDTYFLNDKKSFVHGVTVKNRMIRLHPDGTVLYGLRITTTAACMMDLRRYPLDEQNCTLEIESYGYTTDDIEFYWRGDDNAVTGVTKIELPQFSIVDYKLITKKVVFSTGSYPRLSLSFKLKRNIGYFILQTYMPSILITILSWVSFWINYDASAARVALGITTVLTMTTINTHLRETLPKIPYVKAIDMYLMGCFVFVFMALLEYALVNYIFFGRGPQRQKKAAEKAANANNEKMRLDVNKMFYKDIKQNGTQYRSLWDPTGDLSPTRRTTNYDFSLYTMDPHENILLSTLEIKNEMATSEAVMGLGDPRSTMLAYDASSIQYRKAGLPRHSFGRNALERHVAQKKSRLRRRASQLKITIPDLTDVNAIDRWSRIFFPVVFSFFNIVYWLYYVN
T1 sequence (P22723 39-474): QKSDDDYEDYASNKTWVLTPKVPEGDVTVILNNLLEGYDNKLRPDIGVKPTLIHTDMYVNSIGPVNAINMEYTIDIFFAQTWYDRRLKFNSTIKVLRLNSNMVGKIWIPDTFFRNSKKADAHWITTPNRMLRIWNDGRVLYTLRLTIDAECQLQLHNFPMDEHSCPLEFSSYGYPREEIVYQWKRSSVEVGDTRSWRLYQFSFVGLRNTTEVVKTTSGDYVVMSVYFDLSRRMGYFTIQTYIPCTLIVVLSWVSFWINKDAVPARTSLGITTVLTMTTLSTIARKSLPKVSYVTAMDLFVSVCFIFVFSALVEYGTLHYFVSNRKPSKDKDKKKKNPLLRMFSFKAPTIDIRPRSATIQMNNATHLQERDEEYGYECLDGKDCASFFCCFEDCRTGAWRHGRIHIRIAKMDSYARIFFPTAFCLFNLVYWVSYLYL
T5 sequence (P16305 20-453): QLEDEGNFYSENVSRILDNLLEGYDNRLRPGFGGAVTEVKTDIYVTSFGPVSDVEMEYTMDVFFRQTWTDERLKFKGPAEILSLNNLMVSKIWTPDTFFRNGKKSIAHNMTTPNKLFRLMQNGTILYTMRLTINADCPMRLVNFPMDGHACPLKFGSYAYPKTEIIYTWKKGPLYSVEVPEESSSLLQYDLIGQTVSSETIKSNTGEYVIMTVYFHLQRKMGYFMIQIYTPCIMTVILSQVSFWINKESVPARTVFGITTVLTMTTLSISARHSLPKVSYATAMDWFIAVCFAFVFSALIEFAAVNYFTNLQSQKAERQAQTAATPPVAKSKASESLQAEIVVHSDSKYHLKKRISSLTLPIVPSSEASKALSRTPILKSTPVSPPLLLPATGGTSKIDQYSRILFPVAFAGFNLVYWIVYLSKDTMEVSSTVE
T5 sequence (P63137 26-512): as the sequence (P63137 26-512) above
T5 sequence (P22933 25-449): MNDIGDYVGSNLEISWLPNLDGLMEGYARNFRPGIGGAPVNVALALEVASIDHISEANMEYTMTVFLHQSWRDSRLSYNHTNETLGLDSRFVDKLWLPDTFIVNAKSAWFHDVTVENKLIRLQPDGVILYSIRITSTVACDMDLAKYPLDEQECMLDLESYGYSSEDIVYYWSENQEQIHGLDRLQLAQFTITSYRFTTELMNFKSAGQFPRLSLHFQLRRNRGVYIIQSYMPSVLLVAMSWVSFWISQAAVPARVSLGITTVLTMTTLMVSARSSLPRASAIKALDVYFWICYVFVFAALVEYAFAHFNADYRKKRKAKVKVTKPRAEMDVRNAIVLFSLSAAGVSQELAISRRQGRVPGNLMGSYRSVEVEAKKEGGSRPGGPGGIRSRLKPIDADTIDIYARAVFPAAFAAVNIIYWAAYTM
T4 sequence (P26049 29-492): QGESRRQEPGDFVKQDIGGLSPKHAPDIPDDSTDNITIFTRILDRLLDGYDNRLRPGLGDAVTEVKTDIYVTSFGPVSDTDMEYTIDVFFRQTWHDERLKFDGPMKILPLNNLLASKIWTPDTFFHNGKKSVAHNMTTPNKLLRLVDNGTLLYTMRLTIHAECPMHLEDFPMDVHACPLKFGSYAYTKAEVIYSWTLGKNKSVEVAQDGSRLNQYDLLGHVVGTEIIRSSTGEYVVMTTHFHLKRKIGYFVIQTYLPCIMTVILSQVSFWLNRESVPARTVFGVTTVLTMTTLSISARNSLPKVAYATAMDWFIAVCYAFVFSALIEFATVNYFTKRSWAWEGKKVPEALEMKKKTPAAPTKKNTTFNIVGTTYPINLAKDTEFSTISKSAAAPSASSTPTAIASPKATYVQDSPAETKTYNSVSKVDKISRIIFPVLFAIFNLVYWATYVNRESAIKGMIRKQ
T4 sequence (P63137 26-512): as the sequence (P63137 26-512) above
T4 sequence (P22723 39-474): as the sequence (P22723 39-474) above
T2 sequence (P62812 28-455): as the sequence (P62812 28-455) above
T2 sequence (P63137 26-512): as the sequence (P63137 26-512) above
T13 sequence (P62812 28-455): as the sequence (P62812 28-455) above
T13 sequence (P63080 26-473): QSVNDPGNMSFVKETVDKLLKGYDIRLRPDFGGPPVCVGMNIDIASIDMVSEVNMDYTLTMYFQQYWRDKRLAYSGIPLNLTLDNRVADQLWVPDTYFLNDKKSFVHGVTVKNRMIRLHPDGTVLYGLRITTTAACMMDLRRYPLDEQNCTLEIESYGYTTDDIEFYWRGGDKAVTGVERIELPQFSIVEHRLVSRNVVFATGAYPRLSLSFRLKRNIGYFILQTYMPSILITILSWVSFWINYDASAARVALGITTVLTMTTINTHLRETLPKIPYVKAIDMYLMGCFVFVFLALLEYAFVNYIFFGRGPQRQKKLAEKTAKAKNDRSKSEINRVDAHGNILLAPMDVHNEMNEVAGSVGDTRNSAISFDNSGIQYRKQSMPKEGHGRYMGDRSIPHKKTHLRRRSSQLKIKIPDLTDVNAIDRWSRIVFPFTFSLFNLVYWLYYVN
T13 sequence (P22723 39-474): as the sequence (P22723 39-474) above
T3 sequence (Q9D6F4 36-552): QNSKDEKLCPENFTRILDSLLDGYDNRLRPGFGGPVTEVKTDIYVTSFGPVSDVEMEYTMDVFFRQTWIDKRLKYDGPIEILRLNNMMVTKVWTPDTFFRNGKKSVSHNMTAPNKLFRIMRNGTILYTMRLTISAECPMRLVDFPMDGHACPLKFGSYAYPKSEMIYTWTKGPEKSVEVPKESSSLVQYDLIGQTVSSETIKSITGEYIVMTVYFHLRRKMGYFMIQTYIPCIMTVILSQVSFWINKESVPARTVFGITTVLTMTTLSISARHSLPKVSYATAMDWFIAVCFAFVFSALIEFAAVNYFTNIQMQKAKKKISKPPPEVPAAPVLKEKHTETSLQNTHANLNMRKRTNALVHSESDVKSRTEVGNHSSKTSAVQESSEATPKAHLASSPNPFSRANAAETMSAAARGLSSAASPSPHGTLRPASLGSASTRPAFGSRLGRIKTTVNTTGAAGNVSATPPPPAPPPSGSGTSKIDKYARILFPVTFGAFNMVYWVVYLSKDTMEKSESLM
T3 sequence (P63137 26-512): as the sequence (P63137 26-512) above
T3 sequence (P22933 25-449): as the sequence (P22933 25-449) above
T6 sequence (P63080 26-473): as the sequence (P63080 26-473) above
T8 sequence (P24046 22-479 P315V): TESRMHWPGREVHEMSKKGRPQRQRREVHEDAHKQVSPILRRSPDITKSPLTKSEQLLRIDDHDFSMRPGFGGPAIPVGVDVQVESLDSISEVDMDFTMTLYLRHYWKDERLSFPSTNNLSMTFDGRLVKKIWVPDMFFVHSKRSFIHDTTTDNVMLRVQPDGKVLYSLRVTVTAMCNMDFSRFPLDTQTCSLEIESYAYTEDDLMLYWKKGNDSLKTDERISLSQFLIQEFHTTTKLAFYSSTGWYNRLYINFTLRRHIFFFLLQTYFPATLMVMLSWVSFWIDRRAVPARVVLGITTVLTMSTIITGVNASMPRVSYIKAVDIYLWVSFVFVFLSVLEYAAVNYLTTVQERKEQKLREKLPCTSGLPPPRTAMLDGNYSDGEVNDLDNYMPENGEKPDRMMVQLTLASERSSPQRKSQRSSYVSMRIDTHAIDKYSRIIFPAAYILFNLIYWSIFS
T7 sequence (P62812 28-455 V283S): as the sequence (P62812 28-455) above, with V256S counted along it
T7 sequence (P63137 26-512): as the sequence (P63137 26-512) above
T7 sequence (P22723 39-474): as the sequence (P22723 39-474) above
T10 sequence (P24046 22-479): as the sequence (P24046 22-479 P315V) above, with V294P counted along it

Which “% of control peak current at 10 μM PTX” value (α1β2γ2L [1]) does the source give for picrotoxinin here?
Its value is 37.3 ± 8.1%.

For CC(=O)[C@H]1CC[C@H]2[C@@H]3CC=C4C[C@@H](OS(=O)(=O)O)CC[C@]4(C)[C@H]3CC[C@]12C [pregnenolone sulphate], which IC50 (α1β2) is on record?
The IC50 was 1300 ± 70 nM.

What about the IC50 (α1β2γ2L [2]) of the same molecule?
The IC50 was 400 ± 50 nM.

And the IC50 (α4β2δ)?
Its IC50 is 1300 ± 100 nM.

And the IC50 (α3β2γ2L [3])?
Its IC50 is 600 ± 50 nM.

And the IC50 (α6β2δ [4])?
The IC50 was 1300 ± 100 nM.

What about the “whole-cell patch clamp, HEK cells” value (β3 homomer) of the same molecule?
The value was “neurosteroid caused a concentration-dependent block of the PB-induced peak current”.

What about the IC50 (α1β2γ2L [5]) of the same molecule?
The IC50 was 35500 ± 8200 nM.

And the IC50 (ρ1 [6])?
The IC50 was 6000 ± 600 nM.

And the “% of control peak current at 100 μM PS” value (ρ1-260-γ2S)?
The value was 39.2 ± 5.1%.

What about the IC50 (ρ1 [7]) of the same molecule?
The IC50 was over 300000 nM.

And the IC50 (α2β2γ2L)?
The IC50 was 400 ± 50 nM.

What about the IC50 (α5β2γ2L) of the same molecule?
Its IC50 is 700 ± 100 nM.

And the IC50 (α1β3γ2L)?
The IC50 was 1000 ± 80 nM.

And the IC50 (ρ1-260-α1)?
The IC50 was 7900 ± 1700 nM.

NCCCC(=O)O [GABA] was tested. Which EC50 (α3β2γ2L [8]) did it give?
Its EC50 is 64600 ± 14300 nM.

And the EC50 (α6β2δ [9])?
The EC50 was 200 ± 20 nM.
